From US11185537B2, “3-(5-amino-1-oxoisoindolin-2-yl)piperidine-2,6-dione derivatives and uses thereof” (Novartis AG, priority 2018, dated 2021)
Counter-ions that a name gives are not always drawn.

Molecular target: IKZF2 (Helios) (Homo sapiens (Human), UniProt Q96SW2+Q9UKS7)
Test: Prolabel quantification of IKZF2 protein levels in 293GT cells
Protocol: The Prolabel system from DiscoverX was used to develop high-throughput and quantitative assays to measure changes in IKZF1, IKZF2, and GSPT1 protein levels in response to compounds. […] The complementary fragment of beta-galactosidase (from DiscoverX), is added to the prolabel tag to form an active beta galactosidase enzyme whose activity can be precisely measured. In this way, the levels of a fusion protein with the prolabel tag can be quantified in cell lysates.
Lentiviral vectors, based on the Invitrogen pLenti6.2/V5 DEST backbone, were constructed that placed the prolabel tag upstream of IKZF1, IKZF2, or GSPT1 and expressed the fusion protein from a CMV promoter.
To ensure moderate and consistent expression of the prolabel fusion proteins across all cells in the population, stable cell lines were constructed from cells expressing a single copy of the construct. Lentivirus packaged with the constructs was made using the Virapower kit from Invitrogen.
The levels of prolabel tagged fusion proteins in compound treated cell lines were measured as follows: […]
Day 3, Plates were removed from the incubator and allowed to equilibrate at rt for 30 minutes. […] Plates were incubated at rt for three hours and luminescence was read using an Envision reader (Perkin Elmer) Data was analyzed and visualized using the Spotfire software package.

IKZF2 (Helios), sequence (Q9UKS7 whole entry): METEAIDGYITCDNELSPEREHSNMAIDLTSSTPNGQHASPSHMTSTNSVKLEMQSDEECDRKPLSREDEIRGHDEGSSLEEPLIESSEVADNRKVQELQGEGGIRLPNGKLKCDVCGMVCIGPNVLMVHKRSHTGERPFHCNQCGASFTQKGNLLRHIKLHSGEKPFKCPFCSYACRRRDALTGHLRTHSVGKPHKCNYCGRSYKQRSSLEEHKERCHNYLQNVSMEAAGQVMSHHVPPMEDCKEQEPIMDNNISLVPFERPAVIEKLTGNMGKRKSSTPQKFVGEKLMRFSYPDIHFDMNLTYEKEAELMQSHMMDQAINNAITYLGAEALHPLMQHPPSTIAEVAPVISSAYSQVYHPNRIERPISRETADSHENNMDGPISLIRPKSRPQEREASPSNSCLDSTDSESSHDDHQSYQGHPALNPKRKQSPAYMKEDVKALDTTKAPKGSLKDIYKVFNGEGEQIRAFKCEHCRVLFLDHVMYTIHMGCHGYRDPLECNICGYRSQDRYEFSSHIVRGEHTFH
IKZF2 (Helios), sequence (Q96SW2 whole entry): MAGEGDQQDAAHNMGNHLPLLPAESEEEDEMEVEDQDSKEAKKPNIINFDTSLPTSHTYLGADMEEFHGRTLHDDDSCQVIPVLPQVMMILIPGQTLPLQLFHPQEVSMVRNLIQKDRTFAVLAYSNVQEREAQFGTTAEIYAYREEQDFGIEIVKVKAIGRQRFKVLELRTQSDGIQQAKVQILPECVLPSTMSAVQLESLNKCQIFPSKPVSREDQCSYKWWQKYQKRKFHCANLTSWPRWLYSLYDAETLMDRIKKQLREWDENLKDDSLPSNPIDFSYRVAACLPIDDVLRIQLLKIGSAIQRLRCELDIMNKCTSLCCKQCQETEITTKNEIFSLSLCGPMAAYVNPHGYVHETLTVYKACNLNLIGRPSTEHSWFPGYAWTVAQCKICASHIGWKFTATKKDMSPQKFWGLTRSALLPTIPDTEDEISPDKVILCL
IKZF2 (Helios), sequence (Q16531 whole entry partner): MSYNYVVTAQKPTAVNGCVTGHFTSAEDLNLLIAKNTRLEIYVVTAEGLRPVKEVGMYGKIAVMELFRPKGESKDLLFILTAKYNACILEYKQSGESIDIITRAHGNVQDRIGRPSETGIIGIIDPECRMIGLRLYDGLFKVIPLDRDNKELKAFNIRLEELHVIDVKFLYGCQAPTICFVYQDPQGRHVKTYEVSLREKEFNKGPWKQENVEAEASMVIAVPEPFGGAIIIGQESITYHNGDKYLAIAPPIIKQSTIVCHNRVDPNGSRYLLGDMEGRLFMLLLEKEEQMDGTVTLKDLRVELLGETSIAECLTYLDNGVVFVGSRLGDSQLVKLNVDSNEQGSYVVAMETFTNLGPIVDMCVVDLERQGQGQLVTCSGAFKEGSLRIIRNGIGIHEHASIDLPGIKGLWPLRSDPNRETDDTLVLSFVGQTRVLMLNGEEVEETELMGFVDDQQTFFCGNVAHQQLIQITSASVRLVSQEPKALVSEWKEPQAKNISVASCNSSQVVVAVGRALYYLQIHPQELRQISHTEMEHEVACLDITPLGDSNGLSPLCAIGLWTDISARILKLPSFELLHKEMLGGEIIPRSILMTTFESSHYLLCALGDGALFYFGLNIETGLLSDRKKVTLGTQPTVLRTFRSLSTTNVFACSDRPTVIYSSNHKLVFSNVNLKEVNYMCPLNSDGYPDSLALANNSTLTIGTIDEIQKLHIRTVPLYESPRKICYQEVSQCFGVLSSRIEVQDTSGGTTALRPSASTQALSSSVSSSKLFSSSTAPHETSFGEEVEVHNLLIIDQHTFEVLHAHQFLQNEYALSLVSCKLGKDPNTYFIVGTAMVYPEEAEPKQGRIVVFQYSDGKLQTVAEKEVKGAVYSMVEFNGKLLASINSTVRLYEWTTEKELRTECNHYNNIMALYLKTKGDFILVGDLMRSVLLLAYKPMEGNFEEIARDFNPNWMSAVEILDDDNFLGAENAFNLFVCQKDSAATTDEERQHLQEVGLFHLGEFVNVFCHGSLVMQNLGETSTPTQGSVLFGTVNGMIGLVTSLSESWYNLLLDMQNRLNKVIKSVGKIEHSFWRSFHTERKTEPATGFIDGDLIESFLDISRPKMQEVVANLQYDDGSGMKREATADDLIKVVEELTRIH

Row | SMILES | Dmax at 10 µM (24 h, read-out: IKZF2 % protein reduction at 10 μM, 24 h) [%] | EC50 (read-out: IKZF2 EC50, Pro-label assay, 293GT cells, degradation) [nM]
1 | CN[C@H]1CCCC[C@@H]1N(C)c1ccc2c(c1)CN(C1CCC(=O)NC1=O)C2=O (mixture of isomers) [I-9, Racemic trans-3-(5-(methyl(-2-(methylamino)cyclohexyl)amino)-1-oxoisoindolin-2-yl)piperidine-2,6-dione HC(O)OH Salt] | 65 | 
2 | CC(C)CN[C@H]1CCCC[C@@H]1Nc1ccc2c(c1)CN(C1CCC(=O)NC1=O)C2=O (stereo partly drawn) [I-15, 3-(5-(((1S,2S)-2-(isobutylamino)cyclohexyl)amino)-1-oxoisoindolin-2-yl)piperidine-2,6-dione] |  | 940
